How the values were obtained:
Morningglory = assay: Test B pre-emergence on Fallsington silt loam; format: in vivo, Ipomoea hederacea; conditions: 28 days
Excerpt: (§1) Two plastic bulb pans were filled with fertilized and limed Fallsington silt loam soil. One pan was planted with corn, sorghum, Kentucky bluegrass and several grassy weeds. The other pan was planted with cotton, soybeans, purple nutsedge (Cyperus rotundus), and several broadleaf weeds. The following grassy and broadleaf weeds were planted: crabgrass (Digitaria sanguinalis), barnyardgrass (Echinochloa crusgalli), wild oats (Avena fatua), johnsongrass (Sorghum halepense), dallisgrass (Paspalum dilatatum), giant foxtail (Setaria faberii), cheatgrass (Bromus secalinus), mustard (Brassica arvensis), cocklebur (Xanthium pensylvanicum), pigweed (Amaranthus retroflexus), morningglory (Ipomoea hederacea), cassia (Cassia tora), teaweed (Sida spinosa), velvetleaf (Abutilon theophrasti), and jimsonweed (Datura stramonium). A 12.5 cm diameter plastic pot was also filed with prepared soil and planted with rice and wheat. Another 12.5 cm pot was planted with sugarbeets. The above four containers were treated pre- emergence with several test compounds within the scope of the invention.
(§2) Twenty-eight days after treatment, the plants were evaluated and visually rated for response to the chemical treatments utilizing the rating system described previously for Test A. The data are summarized in Table B.

Wild Oats [1] = assay: Test B pre-emergence on Fallsington silt loam; format: in vivo, Avena fatua; design: scale not given here; conditions: 28 days
Excerpt: as §1, §2

Johnsongrass = assay: Test B pre-emergence on Fallsington silt loam; format: in vivo, Sorghum halepense; design: scale not given here; conditions: 28 days
Excerpt: as §1, §2

Ky. bluegrass = assay: Test B pre-emergence on Fallsington silt loam; format: in vivo, Kentucky bluegrass; design: scale not given here; conditions: 28 days
Excerpt: as §1, §2

Crabgrass = assay: Test B pre-emergence on Fallsington silt loam; format: in vivo, Digitaria sanguinalis; design: scale not given here; conditions: 28 days
Excerpt: as §1, §2

Wheat = assay: Test F over-the-top soil/foliage treatment; format: in vivo, wheet; design: scale not given here; conditions: soil/foliage spray, ~14 days
Procedure: (§3) The test chemicals, dissolved in a non-phytotoxic solvent, were applied in an overall spray to the foliage and surrounding […] of selected plant species. […] Approximately fourteen days after treatment, all species were visually compared to untreated controls and rated for response to treatment.
(§4) All plant species were seeded in Woodstown sandy loam soil and grown in a greenhouse. The following species were grown in soil contained in plastic pots (25 cm diameter by 13 cm deep): soybeans, cotton, alfalfa, corn, rice, wheet, sorghum, velvetleaf (Abutilon theophrasti), sesbania (Sesbania exaltata), Cassia (Cassia tora), morningglory (Ipomoea hederacea), jimsonweed (Datura stramonium), cocklebur (Xanthium pensylvanicum), crabgrass (Digitaria spp.), nutsedge (Cyperus rotundus), barnyardgrass (Echinochloa crusgalli), giant foxtail (Setaria faberii) and wild oats (Avena fatua). The following species were grown in soil in a paper cup (12 cm diameter by 13 cm deep): sunflower, sugarbeets, and mustard. All plants were sprayed approximately 14 days after planting.

Cassia = assay: Test B pre-emergence on Fallsington silt loam; format: in vivo, Cassia tora; conditions: 28 days
Excerpt: as §1, §2

Jimsonweed = assay: Test F over-the-top soil/foliage treatment; format: in vivo, Datura stramonium; conditions: soil/foliage spray; 0.003 kg/ha; ~14 days
Procedure: as §3, §4

Soybean = assay: Test B pre-emergence on Fallsington silt loam; format: in vivo, soybeans; conditions: 28 days
Excerpt: as §1, §2

Alfalfa = assay: Test F over-the-top soil/foliage treatment; format: in vivo; design: scale not given here; conditions: soil/foliage spray, ~14 days
Procedure: as §3, §4

Sorghum [2] = assay: Test F over-the-top soil/foliage treatment; format: in vivo; design: scale not given here; conditions: soil/foliage spray, ~14 days
Procedure: as §3, §4

Barnyardgrass [3] = assay: Test F over-the-top soil/foliage treatment; format: in vivo, Echinochloa crusgalli; design: scale not given here; conditions: soil/foliage spray, ~14 days
Procedure: as §3, §4

Giant Foxtail [4] = assay: Test B pre-emergence on Fallsington silt loam; format: in vivo, Setaria faberii; conditions: 28 days
Excerpt: as §1, §2

Corn [5] = assay: Test F over-the-top soil/foliage treatment; format: in vivo; conditions: soil/foliage spray, ~14 days
Procedure: as §3, §4

Sugarbeets = assay: Test F over-the-top soil/foliage treatment; format: in vivo; conditions: soil/foliage spray; 0.007 kg/ha; ~14 days
Procedure: as §3, §4

Mustard = assay: Test F over-the-top soil/foliage treatment; format: in vivo; conditions: soil/foliage spray; 0.007 kg/ha; ~14 days
Procedure: as §3, §4

Sunflower = assay: Test F over-the-top soil/foliage treatment; format: in vivo; conditions: soil/foliage spray; 0.007 kg/ha; ~14 days
Procedure: as §3, §4

Wild Oats [6] = assay: Test F over-the-top soil/foliage treatment; format: in vivo, Avena fatua; design: scale not given here; conditions: soil/foliage spray, ~14 days
Procedure: as §3, §4

Nutsedge = assay: Test B pre-emergence on Fallsington silt loam; format: in vivo, Cyperus rotundus; conditions: 28 days
Excerpt: as §1, §2

Pigweed = assay: Test B pre-emergence on Fallsington silt loam; format: in vivo, Amaranthus retroflexus; conditions: 28 days
Excerpt: as §1, §2

Corn [7] = assay: Test B pre-emergence on Fallsington silt loam; format: in vivo; design: scale not given here; conditions: 28 days
Excerpt: as §1, §2

Barnyardgrass [8] = assay: Test B pre-emergence on Fallsington silt loam; format: in vivo, Echinochloa crusgalli; conditions: 28 days
Excerpt: as §1, §2

Cotton = assay: Test B pre-emergence on Fallsington silt loam; format: in vivo; conditions: 28 days
Excerpt: as §1, §2

Rice = assay: Test B pre-emergence on Fallsington silt loam; format: in vivo; conditions: 0.007 kg/ha, 28 days
Excerpt: as §1, §2

Sorghum [9] = assay: Test B pre-emergence on Fallsington silt loam; format: in vivo; conditions: 28 days
Excerpt: as §1, §2

Cheatgrass = assay: Test B pre-emergence on Fallsington silt loam; format: in vivo, Bromus secalinus; conditions: 0.007 kg/ha, 28 days
Excerpt: as §1, §2

Cocklebur = assay: Test B pre-emergence on Fallsington silt loam; format: in vivo, Xanthium pensylvanicum; conditions: 28 days
Excerpt: as §1, §2

Giant Foxtail [10] = assay: Test F over-the-top soil/foliage treatment; format: in vivo, Setaria faberii; design: scale not given here; conditions: soil/foliage spray, ~14 days
Procedure: as §3, §4

Dallisgrass = assay: Test B pre-emergence on Fallsington silt loam; format: in vivo, Paspalum dilatatum; design: scale not given here; conditions: 28 days
Excerpt: as §1, §2

Sesbania = assay: Test F over-the-top soil/foliage treatment; format: in vivo, Sesbania exaltata; design: scale not given here; conditions: soil/foliage spray, ~14 days
Procedure: as §3, §4

Work on `Cc1cc(C)nc(NC(=O)NS(=O)(=O)c2ccccc2OS(C)(=O)=O)n1` [Compound 3, N-[(4,6-dimethylpyrimidin-2-yl)aminocarbonyl]-2-hydroxybenzenesulfonamide, methanesulfonate] yielded a Morningglory response rating (Morningglory; 0.007 kg/ha) of 3G, a Morningglory response rating (Morningglory; 0.015 kg/ha) of 3G and a Morningglory response rating (Morningglory; 0.03 kg/ha) of 8G. For the same molecule, the “Wild Oats response rating” value (Wild Oats [1]; 0.007 kg/ha) was 0, the “Wild Oats response rating” value (Wild Oats [1]; 0.015 kg/ha) was 0 and the “Wild Oats response rating” value (Wild Oats [1]; 0.03 kg/ha) was 10C. For the same molecule, the “Wild Oats response rating” value (Wild Oats [1]; 0.12 kg/ha) was 10C, the Johnsongrass response rating (Johnsongrass; 0.007 kg/ha) was 0 and the Johnsongrass response rating (Johnsongrass; 0.015 kg/ha) was 3G. The Johnsongrass response rating (Johnsongrass; 0.03 kg/ha) was 10C, the Johnsongrass response rating (Johnsongrass; 0.12 kg/ha) was 10C and the “Ky. bluegrass response rating” value (Ky. bluegrass; 0.007 kg/ha) was 0. For the same molecule, the “Ky. bluegrass response rating” value (Ky. bluegrass; 0.015 kg/ha) was 2G, the “Ky. bluegrass response rating” value (Ky. bluegrass; 0.03 kg/ha) was 10C and the Crabgrass response rating (Crabgrass; 0.007 kg/ha) was 0. For the same molecule, the Crabgrass response rating (Crabgrass; 0.015 kg/ha) was 0, the Crabgrass response rating (Crabgrass; 0.03 kg/ha) was 5G and the Crabgrass response rating (Crabgrass; 0.12 kg/ha) was 6G. The Wheat response rating (Wheat; 0.003 kg/ha) was 3G, the Wheat response rating (Wheat; 0.007 kg/ha) was 6G and the Wheat response rating (Wheat; 0.015 kg/ha) was 1C. It also gave a Wheat response rating (Wheat; 0.06 kg/ha) of 8C, a Cassia response rating (Cassia; 0.007 kg/ha) of 0 and a Cassia response rating (Cassia; 0.015 kg/ha) of 0. For the same molecule, the Jimsonweed response rating (Jimsonweed) was 0, the Soybean response rating (Soybean; 0.007 kg/ha) was 0 and the Soybean response rating (Soybean; 0.015 kg/ha) was 0. For the same molecule, the Alfalfa response rating (Alfalfa; 0.007 kg/ha) was 7G, the Alfalfa response rating (Alfalfa; 0.015 kg/ha) was 8C and the Alfalfa response rating (Alfalfa; 0.06 kg/ha) was 9C. It also gave a Sorghum response rating (Sorghum [2]; 0.015 kg/ha) of 9C, a Sorghum response rating (Sorghum [2]; 0.06 kg/ha) of 10C and a Barnyardgrass response rating (Barnyardgrass [3]; 0.015 kg/ha) of 9C. For the same molecule, the Barnyardgrass response rating (Barnyardgrass [3]; 0.06 kg/ha) was 10C, the “Giant Foxtail response rating” value (Giant Foxtail [4]; 0.007 kg/ha) was 0 and the “Giant Foxtail response rating” value (Giant Foxtail [4]; 0.015 kg/ha) was 3G. The “Giant Foxtail response rating” value (Giant Foxtail [4]; 0.03 kg/ha) was 3C, the Corn response rating (Corn [5]; 0.007 kg/ha) was 9G and the Corn response rating (Corn [5]; 0.06 kg/ha) was 10C. The Sugarbeets response rating (Sugarbeets) was 10C, the Mustard response rating (Mustard) was 10C and the Sunflower response rating (Sunflower) was 10C. For the same molecule, the “Wild Oats response rating” value (Wild Oats [6]; 0.003 kg/ha) was 4G, the “Wild Oats response rating” value (Wild Oats [6]; 0.007 kg/ha) was 5G and the “Wild Oats response rating” value (Wild Oats [6]; 0.06 kg/ha) was 10C. The Nutsedge response rating (Nutsedge; 0.007 kg/ha) was 0, the Nutsedge response rating (Nutsedge; 0.015 kg/ha) was 0 and the Pigweed response rating (Pigweed; 0.007 kg/ha) was 0. It also gave a Pigweed response rating (Pigweed; 0.12 kg/ha) of 10C, a Corn response rating (Corn [7]; 0.007 kg/ha) of 0 and a Corn response rating (Corn [7]; 0.015 kg/ha) of 0. It also gave a Corn response rating (Corn [7]; 0.03 kg/ha) of 10C, a Corn response rating (Corn [7]; 0.12 kg/ha) of 10C and a Barnyardgrass response rating (Barnyardgrass [8]; 0.007 kg/ha) of 2G. For the same molecule, the Barnyardgrass response rating (Barnyardgrass [8]; 0.015 kg/ha) was 2G, the Cotton response rating (Cotton; 0.007 kg/ha) was 0 and the Cotton response rating (Cotton; 0.015 kg/ha) was 0. The Rice response rating (Rice) was 3G, the Sorghum response rating (Sorghum [9]; 0.007 kg/ha) was 2G and the Sorghum response rating (Sorghum [9]; 0.015 kg/ha) was 4G. For the same molecule, the Sorghum response rating (Sorghum [9]; 0.03 kg/ha) was 10C, the Cheatgrass response rating (Cheatgrass) was 0 and the Cocklebur response rating (Cocklebur; 0.007 kg/ha) was 0. For the same molecule, the Cocklebur response rating (Cocklebur; 0.015 kg/ha) was 0, the Cocklebur response rating (Cocklebur; 0.03 kg/ha) was 7G and the “Giant Foxtail response rating” value (Giant Foxtail [10]; 0.003 kg/ha) was 0. For the same molecule, the “Giant Foxtail response rating” value (Giant Foxtail [10]; 0.007 kg/ha) was 0, the Dallisgrass response rating (Dallisgrass; 0.007 kg/ha) was 0 and the Dallisgrass response rating (Dallisgrass; 0.015 kg/ha) was 3G. It also gave a Dallisgrass response rating (Dallisgrass; 0.03 kg/ha) of 6G, a Sesbania response rating (Sesbania; 0.015 kg/ha) of 9C and a Sesbania response rating (Sesbania; 0.06 kg/ha) of 9C.

From patent publication EP0044212B1, “Herbicidal o-alkylsulfonyloxy- and o-alkylsulfonylamino-benzenesulfonamides” (E.I. DU PONT DE NEMOURS AND COMPANY, priority 1980, dated 1982)
